According to patent publication US5912372A, “Water-miscible esters of monoglycerides having antimicrobial activity” (priority 1997, dated 1999):

Test system: human respiratory syncytial virus (RSV)
Assay: RSV inhibition assay in LLC-MK2 cells, PBS as diluent
Type: cell-based
Settings: compound alone
Method: Additional studies were performed to determine the synergistic anti-viral effects of diacetyltartaric acids esters of monoglycerides, lipophilic monoglycerides (MG) and carrageenan. These studies were carried out using […] and PBS as the diluent. The RSV inhibition assay semi-quantitativelydetermines the ability of a test material (antibody or other bioactive compound) to inhibit the infection of monkey kidney cells (LLC-MK2) by human respiratory syncytial virus (RSV). Infected cells are identified using an immunoperoxidase method and counted. The method is performed in a microtiter format and is described briefly below:
LLC-MK2 rhesus monkey kidney cells were obtained from the American Type Culture Collection and were cultured in Eagles modified essential medium (EMEM) supplemented with 10% fetal bovine serum. For RSV inhibition assays, LLC-MK2 cells at 5,000 cells/well were seeded into fibronectin treated microtiter plates and incubated for 3-4 days prior to use in the infectivity reduction assay. […] Plates were then rinsed as above with PBS/CEA, and the number of stained RSV-infected cells (IC) per well determined using an inverted microscope. The number of ICs' in triplicate wells was compared with the number of ICs' of virus control wells (mean of 9) and the percent inhibition (PI) calculated; [PI=1.0-[Mean ICs' per well of test sample/Mean ICs' per well of virus control]. […]

Carrageenan
Enhancement Factor: 1.0
